Reference: patent US5807691A, “Polypeptides having serotonin receptor activity (5HT5A), nucleic acids coding for these polypeptides and uses thereof” (Institut National De La Sante et Da La Recherche Medicale, priority 1992, dated 1998)
Like-named read-outs stand apart in the source and are kept apart here.

Tests used:
5HT1D [1] = conditions: cited from earlier work
5HT1D [2] = conditions: cited from earlier work; remark: listed apart in the source
5HT5a receptor [3] = biological target: 5HT5a receptor
5HT5a receptor [4] = tested on: 5HT5a receptor; remark: listed apart in the source
5HT5a receptor [5] = assay: Saturation binding of radiolabelled serotonin ligands to membranes of Cos-7 cells expressing the 5HT5a receptor; design: species or system rat; conditions: 10 minutes at 37° C., 50 mM Tris-HCl pH 7.4
Experimental: The specific binding is shown.
(§1) Radioactivity was measured with a γ counter.

5HT5a receptor [6] = assay: [^125 I]-LSD binding to membranes of NIH-3T3 clones NS1 and NS4 expressing the 5HT5a receptor; design: species or system rat
Experimental: as §1
For this purpose, the recombinant expression vector described in 3. above was used. […] The transformant clones were selected in the presence of 0.5 mg of G418. The clones isolated were then amplified, and the total RNAs of these clones were prepared and analysed by Northern blotting for the expression of 5HT5a mRNA.
The membranes of the cells of these clones were then prepared and tested under the conditions described above for their capacity to bind some labelled serotonin ligands, and to determine the affinity of the receptors for the said ligands.
Different displacement experiments were then carried out (Table 1).

In the case of `CC(C)NCC(O)COc1cccc2[nH]ccc12` (racemic) [(±)Pindolol], the “pKi 5HT1D (rat cortex)” value (5HT1D [1]) is given as < 5 and the “pKi 5HT1D (Calf caudate)” value (5HT1D [2]; Calf caudate) is given as 5.2.

For `NCCc1ccc(O)c(O)c1` [Dopamine], the Ki (5HT5a receptor [3]) was 79.4 µM.

For `CN1C[C@H](C(=O)N[C@]2(C)O[C@@]3(O)[C@@H]4CCCN4C(=O)[C@H](Cc4ccccc4)N3C2=O)C=C2c3cccc4[nH]cc(c34)C[C@H]21` [Ergotamine], the “pKi 5HT1D (Calf caudate)” value (5HT1D [2]) is listed as 7.8 and the “pKi 5HT5 (Cos-7)” value (5HT5a receptor [4]) is listed as 8.4.

In the case of `CCN(CC)C(=O)[C@@H]1C=C2c3cccc4[nH]c([125I])c(c34)C[C@H]2N(C)C1` [[^125 I]-LSD], the “binding of radiolabelled ligand to membranes of transfected Cos-7 cells” value (from here on “binding of radiolabelled ligand”) (5HT5a receptor [5]) is reported as “possesses a saturable binding site”, the Kd (5HT5a receptor [5]; Cos-7 membranes, non-specific binding with 10 μM 5HT, FIG. 2) is reported as 0.00034 µM and the “binding sites for [^125 I]-LSD on membranes of clones NS1 and NS4” value (5HT5a receptor [6]) is reported as “high-affinity binding sites”.

For `NCCc1c[nH]c2ccc(C(N)=O)cc12` [5-CT], the “pKi 5HT1D (rat cortex)” value (5HT1D [1]) is listed as 8.6 and the “pKi 5HT1D (Calf caudate)” value (5HT1D [2]; Calf caudate) is listed as 8.6.

In the case of `CNS(=O)(=O)Cc1ccc2[nH]cc(CCN(C)C)c2c1` [Sumatriptan], the “pKi 5HT1D (Calf caudate)” value (5HT1D [2]; Calf caudate) is listed as 7.5.

In the case of `NCCc1c[nH]c2ccc(O)cc12` [5-HT, 5-hydroxytryptamine], the “pKi 5HT1D (rat cortex)” value (5HT1D [1]) is listed as 8.7 and the “pKi 5HT1D (Calf caudate)” value (5HT1D [2]; Calf caudate) is listed as 8.4.

For `CN(C)CCc1c[nH]c2ccc(O)cc12` [Bufotenine], the “pKi 5HT1D (Calf caudate)” value (5HT1D [2]; Calf caudate) is listed as 8.1.

For `COc1ccc2[nH]cc(C3=CCNCC3)c2c1` [RU24969], the “pKi 5HT1D (Calf caudate)” value (5HT1D [2]; Calf caudate) is given as 7.3.

For `CCCN(CCC)C1CCc2cccc(O)c2C1` (stereo not drawn) [8-OH-DPAT], the “pKi 5HT1D (rat cortex)” value (5HT1D [1]) is listed as 6.6 and the “pKi 5HT1D (Calf caudate)” value (5HT1D [2]; Calf caudate) is listed as 5.9.

In the case of `O=C(c1ccc(F)cc1)C1CCN(CCn2c(=O)[nH]c3ccccc3c2=O)CC1` [Ketanserin], the “pKi 5HT1D (rat cortex)” value (5HT1D [1]) is listed as < 5, the “pKi 5HT1D (Calf caudate)” value (5HT1D [2]; Calf caudate) is listed as 5.7 and the Ki (5HT5a receptor [3]) is listed as 15.8 µM.

For `COC(=O)[C@@H]1[C@H]2C[C@H]3c4[nH]c5ccccc5c4CCN3C[C@@H]2CC[C@@H]1O` [Yohimbine], the “pKi 5HT1D (Calf caudate)” value (5HT1D [2]) is given as 7.1.

In the case of `CC(C)(C)NCC(O)COc1cccc2[nH]c(C#N)c([125I])c12` (stereo not drawn) [[^125 I]-cyanopindolol], the “binding of radiolabelled ligand” value (5HT5a receptor [5]) is reported as “do not bind”.

With `NC[C@H](O)c1ccc(O)c(O)c1` [(-)Norepinephrine] the Ki (5HT5a receptor [3]) was 1580 µM.

In the case of `FC(F)(F)c1cccc(N2CCNCC2)c1` [TFMPP], the “pKi 5HT1D (rat cortex)” value (5HT1D [1]) is given as 6.6 and the “pKi 5HT1D (Calf caudate)” value (5HT1D [2]; Calf caudate) is given as 6.2.

With `CCCN(CCC)C1CCc2cccc(O)c2C1` (stereo not drawn) [[^3 H]-8-OH-DPAT] the “binding of radiolabelled ligand” value (5HT5a receptor [5]) was “do not bind”.

For `O=C(CCCN1CCC2(CC1)C(=O)NCN2c1ccccc1)c1ccc(F)cc1` [[^3 H]-spiperone], the “binding of radiolabelled ligand” value (5HT5a receptor [5]) was “do not bind”.
